Measurements: patent US20030007998A1, “Unsaturated lipid-enriched feedstock for ruminants” (priority 2001, published 2003)

Legend:
rumen fluid = details: in vitro, J. Dairy Sci., 78, 2797 (1995); cited from earlier work
Hereford steers [1] = test: Beef cattle feeding trial, dietary monensin in linseed oil diet; format: in vivo
Experimental: (§1) Eight Hereford steers are selected and equipped with rumen and duodenal cannulae. All steers are housed in individual tie stalls. The duration of the trial is the last 90 days of the finishing period.
(§2) The eight steers are used in two four-by-four Latin Square designs. Each square has four steers with four treatments imposed. The four treatments are 0, 10, 40 and 70 mg of dietary monensin. Each square has a different source of dietary fatty acids. In the first square, dietary fat is supplied by linseed oil, which has a high proportion of fatty acid linolenate. The second square has the dietary fat supplied by MEGALAC, which is a calcium salt of palm oil fatty acids having a high proportion of fatty acid oleate.
(§3) Steers are fed identical diets in both squares except for source of fatty acids, and the diets are formulated for high rate of body weight gain (1 kg/day). All diets are calculated to deliver 0.75 kg/steer/day of added dietary linseed oil or MEGALAC. Remaining dietary ingredients are low in fat, and include corn silage, corn, barley, soybean meal, bloodmeal, Smartamine-M (rumen bypass methionine), sodium bicarbonate and vitamin-mineral premix. All diets are offered as Total Mixed Rations twice daily in quantities to assure at least 10% refusal per day of the amount offered.
(§4) Steers are fed their assigned diets for two weeks, with week one as an adaptation and week two as the experimental feeding period. Sampling is on the last 3 days of this second week. All steers are then moved onto a different diet in such a manner that by the end of the trial all steers have received all diets within each Latin Square.
(§5) During the second week of each period daily dry matter intakes are recorded. Total mixed rations are sampled daily and composited weekly. These are analyzed for crude protein, NDF and total fat. During the last 3 days of the second week individual body weights are recorded.
(§6) During the last 3 days of the second week rate of passage from the rumen is estimated using dye marker techniques. The liquid and solids markers are placed into the rumen daily beginning on day 7 of the adaptation period, with duodenal samples taken on the last 3 days of the experimental period. Duodenal samples are stored frozen for later analysis of total fat, fatty acid profile and marker. Concurrent rumen samples are taken. Liquid turnover rate is estimated from the dilution of dye in the liquid portion of rumen samples. Rumen contents are assayed for total fat, fatty acid profile and marker. Each Latin square is analyzed separately.

Holstein cows [2] = test: Dairy cattle feeding trial, dietary monensin in linseed oil diets; format: in vivo
Experimental: (§7) Eight Holstein cows are selected and equipped with rumen and duodenal cannulae. All cows are housed in individual tie stalls and are commencing the trial at 45 days in lactation.
(§8) The eight cows are employed in two four-by-four Latin Square designs. Each square has four cows with four treatments imposed. The four treatments are 0, 10, 40 and 70 mg/kg DM of dietary monensin. Each square has a different source of dietary fatty acids. In the first square, dietary fat is supplied by linseed oil, which has a high proportion of fatty acid linolenate. The second square has the dietary fat supplied by MEGALAC, which is a calcium salt of palm oil fatty acids having a high proportion of fatty acid oleate.
(§9) Cows are fed identical diets in both squares except for source of fatty acids, and are formulated for high production. Nutrient composition is formulated for all diets at 17% crude protein with 65% as rumen undegradable protein, 26% Neutral Detergent Fiber, 1.7 Mcal/kg net energy. All diets contain 4% added fat on a dry matter basis from MEGALAC or linseed oil. A daily dry matter intake of 25 kg/cow is calculated to deliver approximately 1 kg of linseed oil or MEGALAC per cow per day. Remaining dietary ingredients are low in fat, and include alfalfa haylage, corn silage, corn, barley, soybean meal, blood meal, Smartamine-M (rumen bypass methionine), sodium bicarbonate and vitamin-mineral premix. All diets are offered as Total Mixed Rations twice daily in quantities to assure at least 10% refusal per day of the amount offered.
(§10) Cows are fed their assigned diets for two weeks, with week one as an adaptation and week two as the experimental feeding period. Sampling is on the last 3 days of this second week. All cows are then moved onto a different diet in such a manner that by the end of the trial all cows have received all diets within each Latin Square.
(§11) During the second week of each period daily, dry matter intake and milk production are recorded. Total mixed rations are sampled daily and composited weekly. These are analyzed for crude protein, NDF and total fat. During the last 3 days of the second week individual proportional milk samples are taken and separated into two subsamples. One subsample is used to assay for total fat content and true protein, and the second is frozen for subsequent analysis of fatty acid profile in the milk.
as §6, with “week,” for “week”, “duodonal” for “duodenal”

Hereford steers [3] = test: Beef cattle feeding trial, dietary monensin in MEGALAC diet; format: in vivo
Experimental: as §1, §2, §3, §4, §5, §6

Holstein cows [4] = test: Dairy cattle feeding trial, dietary monensin in MEGALAC diet; format: in vivo
Experimental: as §7, §8, §9, §10, §11
as §6, with “week,” for “week”, “duodonal” for “duodenal”

[5] = 10 and 40 mg monensin, P<0.05, steers
[6] = 40 mg monensin, P<0.05, linseed oil diet
[7] = 70 mg monensin, P<0.05, linseed oil diet
[8] = 40 mg monensin, P<0.05, MEGALAC diet
[9] = 70 mg monensin, P<0.05, MEGALAC diet

Q: For CC1(C)S[C@@H]2[C@H](NC(=O)[C@H](N)c3ccc(O)cc3)C(=O)N2[C@H]1C(=O)O [amoxicillin], which “Antimicrobial inhibition of lipolysis and lipid biohydrogenation of soybean oil” value (rumen fluid) is on record?
A: The value was “most potent inhibitors”.

Q: Which “Rumen rate of passage” value (Hereford steers [1]; 10 mg monensin, P<0.1, steers) does the source give for CC[C@@]1([C@@H]2O[C@@H]([C@H]3O[C@@](O)(CO)[C@H](C)C[C@@H]3C)C[C@@H]2C)CC[C@H]([C@]2(C)CC[C@]3(C[C@H](O)[C@@H](C)[C@@H]([C@@H](C)[C@@H](OC)[C@H](C)C(=O)O)O3)O2)O1 [monensin] here?
A: Its value is “tends to increase”.

Q: What about the DMI (Hereford steers [1]; 10 mg monensin, steers) of the same compound?
A: Its DMI is “no significant effect”.

Q: What about the “Rumen liquid turnover rate increase” value (Hereford steers [1]; 70 mg monensin, P<0.1, steers) of the same compound?
A: Its value is 5%.

Q: And the Bypass linolenic acid (Hereford steers [1]; 70 mg monensin, steers)?
A: The Bypass linolenic acid was “about 29%”.

Q: And the “Increase of linolenic acid in duodenal contents” value (Hereford steers [1]; [5])?
A: The value was 24 percentage points.

Q: And the “Rumen bypass rate for linolenic acid” value (Hereford steers [1]; 10 and 40 mg monensin, steers (0 mg: about 10%))?
A: Its value is 34%.

Q: And the DMI reduction (Hereford steers [1]; 40 and 70 mg monensin diets, steers)?
A: Its DMI reduction is 5%.

Q: And the “Rumen rate of passage increase” value (Hereford steers [1]; 40 and 70 mg monensin, steers)?
A: Its value is 6%.

Q: What about the “Rumen liquid turnover rate” value (Hereford steers [1]; between 0, 40 and 70 mg monensin, steers) of the same compound?
A: Its value is “not different”.

Q: What about the DMI (Holstein cows [2]; 0 to 70 mg monensin addition, linseed oil diet, dairy cows) of the same compound?
A: The DMI was “no effect”.

Q: And the “Milk linolenate increase vs. 0 mg supplementation” value (Holstein cows [2]; 10 mg monensin, P<0.05, linseed oil diet)?
A: Its value is 25%.

Q: And the “Rumen rate of passage” value (Holstein cows [2]; 10 mg monensin, P<0.1, linseed oil diet)?
A: The value was “tends to increase”.

Q: What about the Milk production improvement (Holstein cows [2]; 10 mg monensin, tends (P<0.1), linseed oil diet) of the same compound?
A: Its Milk production improvement is 3 lbs. per day.

Q: And the “Milk linolenate increase vs. 0 mg supplementation” value (Holstein cows [2]; [6])?
A: The value was 28%.

Q: What about the Milk production improvement (Holstein cows [2]; [6]) of the same compound?
A: Its Milk production improvement is 3.5 lb/day.

Q: What about the Milk production (Holstein cows [2]; 70 mg monensin vs 40 mg, linseed oil diet) of the same compound?
A: The Milk production was “no further improvement”.

Q: And the “Milk fat percentage reduction” value (Holstein cows [2]; [7])?
A: Its value is 0.3 percentage points.

Q: And the “Milk linolenate increase vs. 0 mg supplementation” value (Holstein cows [2]; [7])?
A: The value was 37%.

Q: And the “Rumen liquid turnover rate increase” value (Holstein cows [2]; 70 mg monensin, P<0.1, linseed oil diet)?
A: The value was 5%.

Q: What about the Bypass linolenic acid (Holstein cows [2]; 70 mg monensin, linseed oil diet) of the same compound?
A: Its Bypass linolenic acid is “about 30%”.

Q: And the “Increase of linolenic acid in duodenal contents” value (Holstein cows [2]; 10 and 40 mg monensin, P<0.05, linseed oil diet)?
A: The value was 20 percentage points.

Q: And the “Estimated rumen bypass rate for linolenic acid” value (Holstein cows [2]; 10 and 40 mg monensin, linseed oil diet (0 mg: 8%))?
A: The value was 28%.

Q: And the “Rumen rate of passage increase” value (Holstein cows [2]; 40 and 70 mg monensin, linseed oil diet)?
A: Its value is 6%.

Q: And the “Rumen liquid turnover rate” value (Holstein cows [2]; between 0, 10 and 40 mg monensin, linseed oil diet)?
A: Its value is “not different”.

Q: What about the Milk protein percentages (Holstein cows [2]; diets with different concentrations of monensin, linseed oil diet) of the same compound?
A: Its Milk protein percentages is “not different”.

Q: What about the Milk fat percentage (Holstein cows [2]; lower inclusion rates of monensin, linseed oil diet) of the same compound?
A: The Milk fat percentage was “only a tendency for a reduction”.

Q: And the DMI (Hereford steers [3]; 10 mg monensin addition, steers)?
A: The DMI was “no effect”.

Q: What about the “Rumen rate of passage” value (Hereford steers [3]; 10 mg monensin, P<0.1, steers) of the same compound?
A: Its value is “tends to increase”.

Q: What about the “Rumen liquid turnover rate increase” value (Hereford steers [3]; 70 mg monensin, P<0.1, steers) of the same compound?
A: The value was 4%.

Q: What about the Bypass linolenic acid (Hereford steers [3]; 70 mg monensin, steers) of the same compound?
A: The Bypass linolenic acid was “about 39%”.

Q: And the “Increase of oleic acid in duodenal contents” value (Hereford steers [3]; [5])?
A: The value was 22 percentage points.

Q: What about the “Estimated rumen bypass rate for oleic acid” value (Hereford steers [3]; 10 and 40 mg monensin, steers (0 mg: 66%)) of the same compound?
A: Its value is 88%.

Q: What about the “DMI reduction compared to controls” value (Hereford steers [3]; 40 and 70 mg monensin, steers) of the same compound?
A: Its value is 8%.

Q: And the “Rumen rate of passage increase” value (Hereford steers [3]; 40 and 70 mg monensin, steers)?
A: Its value is 5.4%.

Q: And the “Rumen liquid turnover rate” value (Hereford steers [3]; between 0, 10 and 40 mg monensin, steers)?
A: Its value is “not different”.

Q: And the DMI (Holstein cows [4]; 0 to 70 mg monensin addition, MEGALAC diet, dairy cows)?
A: The DMI was “no effect”.

Q: What about the “Milk oleate increase vs. 0 mg supplementation” value (Holstein cows [4]; 10 mg monensin, P<0.05, MEGALAC diet) of the same compound?
A: The value was 22%.

Q: What about the “Rumen rate of passage” value (Holstein cows [4]; 10 mg monensin, P<0.1, MEGALAC diet) of the same compound?
A: The value was “tends to increase”.

Q: What about the Milk production improvement (Holstein cows [4]; 10 mg monensin, tends (P<0.1), MEGALAC diet) of the same compound?
A: Its Milk production improvement is 2.8 lbs. per day.

Q: What about the “Milk oleate increase vs. 0 mg supplementation” value (Holstein cows [4]; [8]) of the same compound?
A: Its value is 31%.

Q: What about the Milk production improvement (Holstein cows [4]; [8]) of the same compound?
A: The Milk production improvement was 3.9 lb/day.

Q: And the Milk production (Holstein cows [4]; 70 mg monensin vs 40 mg, MEGALAC diet)?
A: Its Milk production is “no further improvement”.

Q: What about the Bypass linolenic acid (Holstein cows [4]; 70 mg monensin, MEGALAC diet) of the same compound?
A: The Bypass linolenic acid was “about 33%”.

Q: What about the “Milk fat percentage reduction” value (Holstein cows [4]; [9]) of the same compound?
A: Its value is 0.25 percentage points.

Q: And the “Milk oleate increase vs. 0 mg supplementation” value (Holstein cows [4]; [9])?
A: Its value is 39%.

Q: What about the “Rumen liquid turnover rate increase” value (Holstein cows [4]; 70 mg monensin, P<0.1, MEGALAC diet) of the same compound?
A: The value was 6%.

Q: What about the “Estimated rumen bypass rate for oleic acid” value (Holstein cows [4]; 10 and 40 mg monensin, MEGALAC diet (0 mg: 56%)) of the same compound?
A: The value was 74%.

Q: And the “Increase of oleic acid in duodenal contents” value (Holstein cows [4]; 10 and 40 mg monensin, P<0.05, MEGALAC diet)?
A: The value was 18 percentage points.

Q: And the “Rumen rate of passage increase” value (Holstein cows [4]; 40 and 70 mg monensin, MEGALAC diet)?
A: Its value is 6.4%.

Q: What about the “Rumen liquid turnover rate” value (Holstein cows [4]; between 0, 10 and 40 mg monensin, MEGALAC diet) of the same compound?
A: The value was “not different”.

Q: And the Milk protein percentages (Holstein cows [4]; diets with different concentrations of monensin, MEGALAC diet)?
A: Its Milk protein percentages is “not different”.

Q: What about the Milk fat percentage (Holstein cows [4]; lower inclusion rates of monensin, MEGALAC diet) of the same compound?
A: Its Milk fat percentage is “only a tendency for a reduction”.
